Experimental data taken from patent publication US20240376035A1, “METHOD FOR PRODUCING HESPERETIN DIHYDROCHALCONE” (SYMRISE AG, priority 2022, published 2024).

Assays:
trained expert panel = test: Sensory descriptive analysis of ice tea prototypes in different bases (Example 15); type: in vivo; settings: for ANOVA (sweetness factor score): 10 ppm hesperetin dihydrochalcone and/or 3 ppm hesperetin; for effect on the sweetness factor: main and interaction effects in different bases, all sign. p<0.0001
Excerpt: Based on an experimental design, 86 ice tea prototypes (drinkable preparations) were created that systematically varied regarding different sources of sweetness conveyed by sugars (e.g. HFCS (high fructose corn syrup), invert sugar syrup), sweeteners (Reb A, Reb D, Reb M, sucralose, acesulfame K) as well as hesperetin dihydrochalcone (HC) and hesperetin (HT) (the results are depicted in Table 2).
In order to investigate the effect of HT and HC on perceived sweetness dimensions, the 86 samples were profiled (sensory descriptive analysis) by a trained expert panel consisting of 12 panelists. The panelists were trained on an ice tea language with focus on sweetness attributes. Each attribute was scored on an unstructured line scale (10 cm) for its perceived intensity. To ensure high data reliability, every sample was tested twice. The sweetness attributes “sweetness onset”, “sweetness overall intensity” and “sweetness long-lastingness” were aggregated to a so-called sweetness factor using factor analysis (principal component analysis with VARIMAX rotation). The sweetness factor score runs from neg. infinity to positive infinity. By applying statistical modelling (JMP software: fit model: standard least squares, Analysis of Variance: DF 86, F 19.6907, p<0.0001; Rsquare 0.972) all significant main and two-way interaction effects were identified amongst which HC (p<0.0001), HT (p<0.0001) and the interaction of HC and HT (p<0.0001) were identified. These main and interaction effects were further tested in different bases (see table 2) using ANOVA, p<0.05; post hoc test: LSD.

[1] = preparations having a high content of acid such as lemonades or fruit juices; cited from earlier work
[2] = Acesulfame K Ice tea Base, 60 ppm
[3] = HFCS Ice tea Base, 2 wt. % High Fructose corn syrup
[4] = Invert Sugar Syrup Ice tea Base, 2 wt. % invert sugar syrup
[5] = Reb A Ice tea Base, 60 ppm rebaudioside A
[6] = Reb A/Reb D Ice tea Base, 60 ppm rebaudioside A/60 ppm rebaudioside D
[7] = Reb A/Reb M Ice tea Base, 60 ppm rebaudioside A/45 ppm rebaudioside M
[8] = Reb M/Reb D Ice tea Base, 45 ppm rebaudioside M/60 ppm rebaudioside D
[9] = Sucralose Ice tea Base, 100 ppm sucralose

Row | Compound | ANOVA (sweetness factor score) (trained expert panel; [2]) | ANOVA (sweetness factor score) (trained expert panel; [3]) | ANOVA (sweetness factor score) (trained expert panel; [4]) | ANOVA (sweetness factor score) (trained expert panel; [5]) | ANOVA (sweetness factor score) (trained expert panel; [6]) | ANOVA (sweetness factor score) (trained expert panel; [7]) | ANOVA (sweetness factor score) (trained expert panel; [8]) | ANOVA (sweetness factor score) (trained expert panel; [9]) | ANOVA (sweetness factor score) (trained expert panel; Sugar Free Ice tea Base) | effect on the sweetness factor (trained expert panel) | effectivity as intensifier of the sweet flavour [1]
1 | COc1ccc(CCC(=O)c2c(O)cc(O)cc2O)cc1O [Hesperetin dihydrochalcone] | −0.1 | −0.9 | −1 | −0.5 | −0.1 | 0 | −0.3 | −0.8 | −1.3 | positive effect | –
2 | COc1ccc([C@@H]2CC(=O)c3c(O)cc(O)cc3O2)cc1O [Hesperetin, hesperetin] | −2.4 | −3.2 | −3.3 | −2.8 | −2.4 | −2.3 | −2.6 | −3.1 | −3.6 | smallest positive effect | diminished effectivity
